{
  "source": "PubChem BioAssay AID1963978",
  "about": "(Molecular Pharmacology Branch, DTP, NCI, 2024)",
  "system": "616215-338-R-J1-PDC spheroids with HUVEC/MSC, viability",
  "assay": "Anticancer human tumor 616215-338-R-J1-PDC patient-derived colon adenocarcinoma cell line growth inhibition [PI3K]",
  "settings": "for pIC50: curve of first compound; for viability, T/C: stronger effect = lower value",
  "method_in_brief": "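Three cell types, namely tumor cells, endothelial cells and mesenchymal stem cells, formed each spheroid. Combinations with four PI3K inhibitors were screened at clinically achievable concentrations decreasing by half-log, and spheroid viability was recorded.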",
  "key": {"[1]": {"settings": "second compound 0.0316 µM, first compound 0.0316 µM"}, "[2]": {"settings": "second compound 0.0316 µM, first compound 0.1 µM"}, "[3]": {"settings": "second compound 0.0316 µM, first compound 0.316 µM"}, "[4]": {"settings": "second compound 0.0316 µM, first compound 1 µM"}, "[5]": {"settings": "second compound 0.0316 µM, first compound 3.16 µM"}, "[6]": {"settings": "second compound 0.0316 µM, first compound 10 µM"}, "[7]": {"settings": "second compound 0.1 µM, first compound 0.0316 µM"}, "[8]": {"settings": "second compound 0.1 µM, first compound 0.1 µM"}, "[9]": {"settings": "second compound 0.1 µM, first compound 0.316 µM"}, "[10]": {"settings": "second compound 0.1 µM, first compound 1 µM"}, "[11]": {"settings": "second compound 0.1 µM, first compound 3.16 µM"}, "[12]": {"settings": "second compound 0.1 µM, first compound 10 µM"}, "[13]": {"settings": "second compound 0.316 µM, first compound 0.0316 µM"}, "[14]": {"settings": "second compound 0.316 µM, first compound 0.1 µM"}, "[15]": {"settings": "second compound 0.316 µM, first compound 0.316 µM"}, "[16]": {"settings": "second compound 0.316 µM, first compound 1 µM"}, "[17]": {"settings": "second compound 0.316 µM, first compound 3.16 µM"}, "[18]": {"settings": "second compound 0.316 µM, first compound 10 µM"}, "[19]": {"settings": "second compound 1 µM, first compound 0.0316 µM"}, "[20]": {"settings": "second compound 1 µM, first compound 0.1 µM"}, "[21]": {"settings": "second compound 1 µM, first compound 0.316 µM"}, "[22]": {"settings": "second compound 1 µM, first compound 1 µM"}, "[23]": {"settings": "second compound 1 µM, first compound 3.16 µM"}, "[24]": {"settings": "second compound 1 µM, first compound 10 µM"}, "[25]": {"settings": "second compound 3.16 µM, first compound 0.0316 µM"}, "[26]": {"settings": "second compound 3.16 µM, first compound 0.1 µM"}, "[27]": {"settings": "second compound 3.16 µM, first compound 0.316 µM"}, "[28]": {"settings": "second compound 3.16 µM, first compound 1 µM"}, "[29]": {"settings": "second compound 3.16 µM, first compound 3.16 µM"}, "[30]": {"settings": "second compound 3.16 µM, first compound 10 µM"}, "[31]": {"settings": "second compound 10 µM, first compound 0.0316 µM"}, "[32]": {"settings": "second compound 10 µM, first compound 0.1 µM"}, "[33]": {"settings": "second compound 10 µM, first compound 0.316 µM"}, "[34]": {"settings": "second compound 10 µM, first compound 1 µM"}, "[35]": {"settings": "second compound 10 µM, first compound 3.16 µM"}, "[36]": {"settings": "second compound 10 µM, first compound 10 µM"}},
  "note": "pIC50: −log10 of the molar value.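 Note: spheroids exposed to agents for seven days before the viability read.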",
  "data": [
    {"smiles": "C#Cc1c(F)ccc2cc(O)cc(-c3ncc4c(N5CC6CCC(C5)N6)nc(OCC56CCCN5CC(F)C6)nc4c3F)c12", "note": "(centres undefined) + Cc1nc(NC(=O)N2CCCC2C(N)=O)sc1-c1ccnc(C(C)(C)C(F)(F)F)c1", "values": [
      {"measurement": "pIC50", "setting": "second compound 0.0316 µM", "value": "< 5.00"},
      {"measurement": "pIC50", "setting": "second compound 0.1 µM", "value": "< 5.00"},
      {"measurement": "pIC50", "setting": "second compound 0.316 µM", "value": "< 5.00"},
      {"measurement": "pIC50", "setting": "second compound 1 µM", "value": "< 5.00"},
      {"measurement": "pIC50", "setting": "second compound 3.16 µM", "value": "< 5.00"},
      {"measurement": "pIC50", "setting": "second compound 10 µM", "value": 5.04},
      {"measurement": "viability, T/C", "setting": "[1]", "value": 108, "unit": "%"},
      {"measurement": "viability, T/C", "setting": "[2]", "value": 106, "unit": "%"},
      {"measurement": "viability, T/C", "setting": "[3]", "value": 102, "unit": "%"},
      {"measurement": "viability, T/C", "setting": "[4]", "value": 93.3, "unit": "%"},
      {"measurement": "viability, T/C", "setting": "[5]", "value": 82, "unit": "%"},
      {"measurement": "viability, T/C", "setting": "[6]", "value": 67.6, "unit": "%"},
      {"measurement": "viability, T/C", "setting": "[7]", "value": 97.2, "unit": "%"},
      {"measurement": "viability, T/C", "setting": "[8]", "value": 104, "unit": "%"},
      {"measurement": "viability, T/C", "setting": "[9]", "value": 100, "unit": "%"},
      {"measurement": "viability, T/C", "setting": "[10]", "value": 104, "unit": "%"},
      {"measurement": "viability, T/C", "setting": "[11]", "value": 96.1, "unit": "%"},
      {"measurement": "viability, T/C", "setting": "[12]", "value": 54.5, "unit": "%"},
      {"measurement": "viability, T/C", "setting": "[13]", "value": 95.3, "unit": "%"},
      {"measurement": "viability, T/C", "setting": "[14]", "value": 99.2, "unit": "%"},
      {"measurement": "viability, T/C", "setting": "[15]", "value": 96.4, "unit": "%"},
      {"measurement": "viability, T/C", "setting": "[16]", "value": 84.8, "unit": "%"},
      {"measurement": "viability, T/C", "setting": "[17]", "value": 86.3, "unit": "%"},
      {"measurement": "viability, T/C", "setting": "[18]", "value": 54.9, "unit": "%"},
      {"measurement": "viability, T/C", "setting": "[19]", "value": 110, "unit": "%"},
      {"measurement": "viability, T/C", "setting": "[20]", "value": 101, "unit": "%"},
      {"measurement": "viability, T/C", "setting": "[21]", "value": 91.2, "unit": "%"},
      {"measurement": "viability, T/C", "setting": "[22]", "value": 89.9, "unit": "%"},
      {"measurement": "viability, T/C", "setting": "[23]", "value": 74.6, "unit": "%"},
      {"measurement": "viability, T/C", "setting": "[24]", "value": 63.6, "unit": "%"},
      {"measurement": "viability, T/C", "setting": "[25]", "value": 112, "unit": "%"},
      {"measurement": "viability, T/C", "setting": "[26]", "value": 104, "unit": "%"},
      {"measurement": "viability, T/C", "setting": "[27]", "value": 93.8, "unit": "%"},
      {"measurement": "viability, T/C", "setting": "[28]", "value": 85.1, "unit": "%"},
      {"measurement": "viability, T/C", "setting": "[29]", "value": 78.1, "unit": "%"},
      {"measurement": "viability, T/C", "setting": "[30]", "value": 53, "unit": "%"},
      {"measurement": "viability, T/C", "setting": "[31]", "value": 88.3, "unit": "%"},
      {"measurement": "viability, T/C", "setting": "[32]", "value": 93.2, "unit": "%"},
      {"measurement": "viability, T/C", "setting": "[33]", "value": 93.5, "unit": "%"},
      {"measurement": "viability, T/C", "setting": "[34]", "value": 88.9, "unit": "%"},
      {"measurement": "viability, T/C", "setting": "[35]", "value": 82.5, "unit": "%"},
      {"measurement": "viability, T/C", "setting": "[36]", "value": 47.1, "unit": "%"}
    ]},
    {"smiles": "CC1(C)CCC(Nc2ncc(C(F)(F)F)c(-c3c[nH]c4c(P(C)(C)=O)c(C#N)ccc34)n2)CN1", "note": "(centres undefined) + Cc1nc(NC(=O)N2CCCC2C(N)=O)sc1-c1ccnc(C(C)(C)C(F)(F)F)c1", "values": [
      {"measurement": "pIC50", "setting": "second compound 0.0316 µM", "value": 5.44},
      {"measurement": "pIC50", "setting": "second compound 0.1 µM", "value": 5.42},
      {"measurement": "pIC50", "setting": "second compound 0.316 µM", "value": 5.44},
      {"measurement": "pIC50", "setting": "second compound 1 µM", "value": 5.47},
      {"measurement": "pIC50", "setting": "second compound 3.16 µM", "value": 5.96},
      {"measurement": "pIC50", "setting": "second compound 10 µM", "value": 6.73},
      {"measurement": "viability, T/C", "setting": "[1]", "value": 50.7, "unit": "%"},
      {"measurement": "viability, T/C", "setting": "[2]", "value": 54.1, "unit": "%"},
      {"measurement": "viability, T/C", "setting": "[3]", "value": 54.7, "unit": "%"},
      {"measurement": "viability, T/C", "setting": "[4]", "value": 56.1, "unit": "%"},
      {"measurement": "viability, T/C", "setting": "[5]", "value": 69.7, "unit": "%"},
      {"measurement": "viability, T/C", "setting": "[6]", "value": 0.38, "unit": "%"},
      {"measurement": "viability, T/C", "setting": "[7]", "value": 64.5, "unit": "%"},
      {"measurement": "viability, T/C", "setting": "[8]", "value": 52, "unit": "%"},
      {"measurement": "viability, T/C", "setting": "[9]", "value": 59.5, "unit": "%"},
      {"measurement": "viability, T/C", "setting": "[10]", "value": 60, "unit": "%"},
      {"measurement": "viability, T/C", "setting": "[11]", "value": 59.7, "unit": "%"},
      {"measurement": "viability, T/C", "setting": "[12]", "value": 0.38, "unit": "%"},
      {"measurement": "viability, T/C", "setting": "[13]", "value": 51.8, "unit": "%"},
      {"measurement": "viability, T/C", "setting": "[14]", "value": 57.8, "unit": "%"},
      {"measurement": "viability, T/C", "setting": "[15]", "value": 59.7, "unit": "%"},
      {"measurement": "viability, T/C", "setting": "[16]", "value": 52.8, "unit": "%"},
      {"measurement": "viability, T/C", "setting": "[17]", "value": 63.6, "unit": "%"},
      {"measurement": "viability, T/C", "setting": "[18]", "value": 0.32, "unit": "%"},
      {"measurement": "viability, T/C", "setting": "[19]", "value": 61.9, "unit": "%"},
      {"measurement": "viability, T/C", "setting": "[20]", "value": 45.8, "unit": "%"},
      {"measurement": "viability, T/C", "setting": "[21]", "value": 53.7, "unit": "%"},
      {"measurement": "viability, T/C", "setting": "[22]", "value": 55.8, "unit": "%"},
      {"measurement": "viability, T/C", "setting": "[23]", "value": 52.5, "unit": "%"},
      {"measurement": "viability, T/C", "setting": "[24]", "value": 0.18, "unit": "%"},
      {"measurement": "viability, T/C", "setting": "[25]", "value": 53.5, "unit": "%"},
      {"measurement": "viability, T/C", "setting": "[26]", "value": 47.5, "unit": "%"},
      {"measurement": "viability, T/C", "setting": "[27]", "value": 48.3, "unit": "%"},
      {"measurement": "viability, T/C", "setting": "[28]", "value": 57.6, "unit": "%"},
      {"measurement": "viability, T/C", "setting": "[29]", "value": 31.2, "unit": "%"},
      {"measurement": "viability, T/C", "setting": "[30]", "value": 0.39, "unit": "%"},
      {"measurement": "viability, T/C", "setting": "[31]", "value": 61.6, "unit": "%"},
      {"measurement": "viability, T/C", "setting": "[32]", "value": 51.4, "unit": "%"},
      {"measurement": "viability, T/C", "setting": "[33]", "value": 46.2, "unit": "%"},
      {"measurement": "viability, T/C", "setting": "[34]", "value": 37.1, "unit": "%"},
      {"measurement": "viability, T/C", "setting": "[35]", "value": 20.2, "unit": "%"},
      {"measurement": "viability, T/C", "setting": "[36]", "value": 0.89, "unit": "%"}
    ]}
  ]
}
